According to patent US20030022821A1, “Bioactive peptides” (priority 1998, published 2003):
Values after ≈ are worked out from the molar mass of the structure shown. Values joined by “and” are separate entries in the source; they are usually repeats but may differ in a detail not shown here. Equal values may be shown once. “Also recorded” adds a separate entry of the source. Read-outs that look alike come from different tables or passages of the source. Square brackets hold non-standard residues; d marks the D form. Ends that are not written are not given here. Peptide text beside a SMILES is read from it. Bip = N[C@@H](Cc1ccc(-c2ccccc2)cc1)C(=O)O

Columns and labels:
[1] = system: Escherichia coli ATCC 25922; format: cell-based
Method in brief: (§1)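 Inoculum of 2×10^6 CFU/ml, mid-logarithmic growth phase, in 1% Bacto Peptone water; standard microdilution, performed in triplicate.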

[2] = system: Staphylococcus aureus ATCC 25923; format: cell-based
Method in brief: as §1

[3] = system: MRSA (methicillin resistant S. aureus); format: cell-based
Procedure: The bacterial strains used were: Escherichia coli ATCC 25922 and Staphylococcus aureus ATCC 25923. All strains were stored at −70° C. The bacteria were grown in 2% Bacto Peptone water (Difco 1807-17-4). All tests were performed with bacteria in mid-logarithmic growth phase. Determination of the minimum inhibitory concentration (MIC) of the peptides for bacterial strains were performed in 1% Bacto Peptone water. A standard microdilution technique with an inoculum of 2×10^6 CFU/ml was used. All assays were performed in triplets. Since the peptides are positively charged and therefore could adhere to the plastic wells, we controlled the actual concentration of the peptides in the solution by HPLC. There was no difference between the concentration of the peptides before or after adding the solution to the plastic wells.
Table 13 below gives the antibacterial activity and toxicity data for some preferred peptides of the invention. MRSA is methicillin resistant S. aureus and MRSE is methicillin resistant S. epidermidis.

[4] = system: human promyelotic leukemia cell line HL 60; assay: Cytotoxicity on HL 60 cells, MTT; format: cell-based; details: at the concentration tested, 4 hours
human red blood cells = assay: Hemolytic assay; format: cell-based
[5] = system: Meth A cells (murine sarcoma cell line); assay: Cytotoxicity on Meth A cells, MTT method; details: 4 h
Procedure: Peptide solutions (0.1 ml) were added and the plates incubated at 37° C. for 30 minutes, 4 hours or 24 hours. The cytotoxicity was measured using the MTT method (Mosmann et al., J. Immunol. (1986) 136, 2348-2357).
Cells in the growth phase were harvested and washed in fresh medium and injected subcutaneously into the abdominal region of the mice.
The cytotoxic effect of the peptides on different murine and human tumor cells were measured using the MTT method (Mosmann et al., J. Immunol. (1986) 136, 2348-2357). MTT is a soluble tetrazolium salt yielding a yellow solution when prepared in media or salt solutions lacking phenol red. Dissolved MTT is converted to an insoluble purple formazan by cleavage of the tetrazolium ring by dehydrogenase enzymes. This water insoluble formazan can be solubilized using isopropanol or other solvents and the dissolved material is measured spectrophotometrically. The absorbance was measured as a function of concentration of converted dye.
Cells were maintained in […] medium containing 10% FBS, 1% L-glutamine and 0.1% penicillin and streptomycin. Cells to be used in the assay were grown to confluency, trypsinated and split to single cell suspension, counted and centrifuged at 1500 rpm for 10 min. […][…] of cell suspension was transferred to each well on a 96-well microtiter plate. The cells were stimulated by adding […] of various concentrations of peptides diluted with assay medium to each well. The final concentrations of peptide were for example: 5, 10, 20, 40, 60, 80, 100, and 200 mg/ml. […] As a negative control only medium was added to the cells, and as a positive control (100% killing) 1% triton X-100 was added. Following an incubation period of 4 h., 20 ml MTT dissolved in PBS at a concentration of 5 mg/ml was added to each well, and the plate was incubated further for 2 h. 130 ml of the supernatant were then removed and […] acid alcohol (0.04-0.1 N HCl in isopropanol) added to each well to dissolve the dark blue crystals. The plate was placed on a shaker for 1 h and read spectrophotometrically at 590 nm in a microtiterplate reader using the Softmaxâ program.

normal fibroblasts = format: cell-based

## C[C@@H](NC(=O)[C@H](Cc1c[nH]c2ccccc12)NC(=O)[C@H](CCCNC(=N)N)NC(=O)[C@H](Cc1c[nH]c2ccccc12)NC(=O)[C@@H](C)NC(=O)[C@@H](CCCNC(=N)N)NC(=O)[C@H](N)Cc1ccc(O)cc1)C(=O)N[C@@H](Cc1c[nH]c2ccccc12)C(=O)N[C@@H](CCCNC(=N)N)C(=O)N[C@@H](Cc1c[nH]c2ccccc12)C(=O)N[C@@H](CCCNC(=N)N)C(N)=O (H-[dY][dR][dA]WRW[dA]WRWR-NH2)
[1]; Table 14, peptides with a proportion of D amino acids
  MIC E. coli: 7.5 µg/mL
[2]; Table 14
  MIC S. aureus: 5 µg/mL
[3]; Table 14
  MIC MRSA: 2.5 µg/mL

## CC[C@H](C)[C@H](NC(=O)[C@H](CO)NC(=O)[C@@H]1CCCN1C(=O)[C@H](C)NC(=O)CNC(=O)[C@H](CC(C)C)NC(=O)[C@H](CCCCN)NC(=O)[C@H](CCCCN)NC(=O)[C@H](CCSC)NC(=O)[C@H](CCCNC(=N)N)NC(=O)[C@H](Cc1c[nH]c2ccccc12)NC(=O)[C@H](CCC(N)=O)NC(=O)[C@H](Cc1c[nH]c2ccccc12)NC(=O)[C@H](CCCNC(=N)N)NC(=O)[C@H](CCCNC(=N)N)NC(=O)[C@H](CSCNC(C)=O)NC(=O)[C@H](CCCCN)NC(=O)[C@@H](N)Cc1ccccc1)C(=O)N[C@H](C(=O)N[C@@H](CSCNC(C)=O)C(=O)N[C@H](C(=O)N[C@@H](CCCNC(=N)N)C(=O)N[C@@H](CCCNC(=N)N)C(=O)N[C@@H](C)C(=O)N[C@@H](Cc1ccccc1)C(=O)O)C(C)C)[C@@H](C)O [LFB (17-41), reference compound]
[1]; Table 1
  MIC E. coli ATCC 25922: 30 mg/L (≈ 9.18 µM)
[2]; Table 1
  MIC S. aureus ATCC 25923: 30 mg/L (≈ 9.18 µM)
[4]
  cytotoxic effect on human HL 60 cells: weak concentration dependant cytotoxic effect

## CSCC[C@H](NC(=O)[C@H](CCCNC(=N)N)NC(=O)[C@H](Cc1c[nH]c2ccccc12)NC(=O)[C@H](CCC(N)=O)NC(=O)[C@H](Cc1c[nH]c2ccccc12)NC(=O)[C@H](CCCNC(=N)N)NC(=O)[C@H](CCCNC(=N)N)NC(=O)[C@H](Cc1ccc(-c2ccccc2)cc1)NC(=O)[C@H](CCCCN)NC(=O)[C@@H](N)Cc1ccccc1)C(=O)N[C@@H](CCCCN)C(=O)N[C@@H](CCCCN)C(=O)N[C@@H](CC(C)C)C(=O)NCC(=O)N[C@@H](C)C(=O)O [LFB Bip3] (H-FK[Bip]RRWQWRMKKLGA-OH; N-terminus assumed)
[1]; Table 13, listed as LPB Bip 3
  MIC E. coli: 12.5 µg/mL
[3]; Table 13, listed as LPB Bip 3
  MIC MRSA: 2.5 µg/mL
[3]; methicillin resistant
  MIC MRSA: 1.2 µM

## CSCC[C@H](NC(=O)[C@H](CCCNC(=N)N)NC(=O)[C@H](Cc1ccc(-c2ccccc2)cc1)NC(=O)[C@H](CCC(N)=O)NC(=O)[C@H](Cc1ccc(-c2ccccc2)cc1)NC(=O)[C@H](CCCNC(=N)N)NC(=O)[C@H](CCCNC(=N)N)NC(=O)[C@H](CSCNC(C)=O)NC(=O)[C@H](CCCCN)NC(=O)[C@@H](N)Cc1ccccc1)C(=O)N[C@@H](CCCCN)C(=O)N[C@@H](CCCCN)C(=O)N[C@@H](CC(C)C)C(=O)NCC(=O)N[C@@H](C)C(=O)O [LFB Bip6, 8]
[1]; ATCC 25922
  MIC E. coli: 10 µg/mL
[1]; Table 13, 8
  MIC E. coli: ≧12.5 μg/ml; also recorded: ≧5.8 μM
[2]; Table 13, 8
  MIC S. aureus: 3.0 µg/mL
[3]; Table 13, 8
  MIC MRSA: 2.5 µg/mL
[3]; methicillin resistant
  MIC MRSA: 1.2 µM

## CSCC[C@H](NC(=O)[C@H](CCCNC(=N)N)NC(=O)[C@H](Cc1ccc(-c2ccccc2)cc1)NC(=O)[C@H](CCC(N)=O)NC(=O)[C@H](Cc1c(S(=O)(=O)c2c(C)c(C)c3c(c2C)CCC(C)(C)O3)[nH]c2ccccc12)NC(=O)[C@H](CCCNC(=N)N)NC(=O)[C@H](CCCNC(=N)N)NC(=O)[C@H](CSCNC(C)=O)NC(=O)[C@H](CCCCN)NC(=O)[C@@H](N)Cc1ccccc1)C(=O)N[C@@H](CCCCN)C(=O)N[C@@H](CCCCN)C(=O)N[C@@H](CC(C)C)C(=O)NCC(=O)N[C@@H](C)C(=O)O [LFB Bip8 PMC]
[1]; Table 8
  MIC E. coli: 25 µg/mL
[1]; Table 13
  MIC E. coli: 15.0 μg/ml and 6.3 μM
[2]; Table 8
  MIC S. aureus: 5 µg/mL
[2]; Table 13
  MIC S. aureus: 2.5 μg/ml and 1.1 μM
[3]; Table 13
  MIC MRSA: 2.5 μg/ml and 1.1 μM

## CSCC[C@H](NC(=O)[C@H](CCCNC(=N)N)NC(=O)[C@H](Cc1ccc2ccccc2c1)NC(=O)[C@H](CCC(N)=O)NC(=O)[C@H](Cc1ccc2ccccc2c1)NC(=O)[C@H](CCCNC(=N)N)NC(=O)[C@H](CCCNC(=N)N)NC(=O)[C@H](CSCNC(C)=O)NC(=O)[C@H](CCCCN)NC(=O)[C@@H](N)Cc1ccccc1)C(=O)N[C@@H](CCCCN)C(=O)N[C@@H](CCCCN)C(=O)N[C@@H](CC(C)C)C(=O)NCC(=O)N[C@@H](C)C(=O)O [LFB Nal6, 8]
[1]; ATCC 25922
  MIC E. coli: 4.8 µM
[1]; Table 8
  MIC E. coli: 10 µg/mL
[1]; Table 13, 8
  MIC E. coli: 10.0 µg/mL
[2]; ATCC 25923
  MIC S. aureus: 9.6 µM
[2]; Table 8
  MIC S. aureus: 20 µg/mL
[2]; Table 13, 8
  MIC S. aureus: 20.0 µg/mL
[3]; Table 13, 8
  MIC MRSA: 5.0 µg/mL
[3]; methicillin resistant
  MIC MRSA: 2.4 µM
Human red blood cells
  EC 50: >1000 mg/L
  EC50: > 479 µM
Human red blood cells; red cells of human, 10
  % Hemolysis 10 μg/ml: 2.8%
Human red blood cells; red cells of human, 100
  % Hemolysis 100 μg/ml: 4.9%

## N=C(N)NCCC[C@@H](N)C(=O)N[C@@H](Cc1c[nH]c2ccccc12)C(=O)N[C@H](Cc1c[nH]c2ccccc12)C(=O)N[C@@H](CCCNC(=N)N)C(=O)N[C@H](Cc1ccc(O)cc1)C(=O)N[C@@H](Cc1c[nH]c2ccccc12)C(=O)N[C@H](CCCNC(=N)N)C(N)=O [arg-TRP-trp-ARG-tyr-TRP-arg-CONH2] (H-[dR]W[dW]R[dY]W[dR]-NH2; N-terminus assumed)
[1]; ATCC 25922
  MIC E. coli: 7.5 µg/mL
[2]; ATCC 25923
  MIC S. aureus: 5 µg/mL
[3]; methicillin resistant
  MIC MRSA: 2.5 µg/mL

## N=C(N)NCCC[C@@H](N)C(=O)N[C@H](Cc1c[nH]c2ccccc12)C(=O)N[C@@H](Cc1c[nH]c2ccccc12)C(=O)N[C@@H](CCCNC(=N)N)C(=O)N[C@@H](Cc1ccc(O)cc1)C(=O)N[C@H](Cc1c[nH]c2ccccc12)C(=O)N[C@H](CCCNC(=N)N)C(N)=O [arg-trp-TRP-ARG-TYR-trp-arg-CONH2] (H-[dR][dW]WRY[dW][dR]-NH2)
[1]; ATCC 25922
  MIC E. coli: 7.5 µg/mL
[2]; ATCC 25923
  MIC S. aureus: 5 µg/mL
[3]; methicillin resistant
  MIC MRSA: 2.5 µg/mL

## C[C@@H](NC(=O)[C@H](CCCNC(=N)N)NC(=O)[C@H](N)Cc1ccc(O)cc1)C(=O)N[C@@H](Cc1c[nH]c2ccccc12)C(=O)N[C@H](CCCNC(=N)N)C(=O)N[C@@H](Cc1c[nH]c2ccccc12)C(=O)N[C@H](C)C(=O)N[C@@H](Cc1c[nH]c2ccccc12)C(=O)N[C@H](CCCNC(=N)N)C(=O)N[C@@H](Cc1c[nH]c2ccccc12)C(=O)N[C@H](CCCNC(=N)N)C(N)=O [tyr-ARG-ala-TRP-arg-TRP-ala-TRP-arg-TRP-arg-CONH2] (H-[dY]R[dA]W[dR]W[dA]W[dR]W[dR]-NH2; N-terminus assumed)
[1]; ATCC 25922
  MIC E. coli: 7.5 µg/mL
[2]; ATCC 25923
  MIC S. aureus: 7.5 µg/mL
[3]; methicillin resistant
  MIC MRSA: 2.5 µg/mL

## PAWRKAFRWAWRMLKKAA-OH [LFB 14-31A2,6, 10, 17F7K16L14R4]
[1]; Table 17
  Mic E-coli: 2/4
[2]; ATCC 25923
  Mic S. Aureus: 2 µM
Human red blood cells; red cells of human
  EC50: 110 µM
[5]
  IC50: 6.6 µM
Normal fibroblasts
  IC50: 17 µM

## YRWWRWARRW-NH2 [LFM 17-26 A7R2,8, 9W3,4, 10Y1NH2]
[1]; ATCC 25922
  MIC E. coli: 6.2 µM
[1]; Table 10
  MIC E. coli: 10 µg/mL
[1]; Table 13
  MIC E. coli: 10.0 µg/mL
[2]; Table 13
  MIC S. aureus: 1.0 µg/mL
[3]; Table 13
  MIC MRSA: 2.5 µg/mL
[3]; methicillin resistant
  MIC MRSA: 1.5 µM
Human red blood cells
  EC50: 543 ± 56 µM
Human red blood cells; Table 13, toxicity (hemolysis)
  EC 50: 880 ± 90 mg/L
